Measurements as given in US9681664B2, “Macrocyclic picolinamides as fungicides” (Dow Agrosciences LLC, priority 2012, dated 2017).
Read-outs that look alike come from different tables or passages of the source.

Columns and labels:
Format in all cases: in vivo
[1] = system: Blumeria graminis f. sp. hordei; Synonym: Erysiphe graminis f. sp. hordei; test: Barley powdery mildew (ERYSGH) disease control; details: 24 h, 1 Day Protectant, high volume, read-out: Disease Control ERYSGH 1 DP
Experimental: Technical grades of materials were dissolved in acetone, which were then mixed with nine volumes of water containing 110 ppm Triton X-100. The fungicide solutions were applied onto wheat seedlings using an automated booth sprayer to run-off. All sprayed plants were allowed to air dry prior to further handling. All fungicides were evaluated using the aforementioned method for their activity vs. all target diseases. Wheat leaf blotch and brown rust activity were also evaluated using track spray applications, in which case the fungicides were formulated as EC formulations, containing 0.1% Trycol 5941 in the spray solutions. Barley seedlings (variety Harrington) were propagated in soil-less Metro mix, with each pot having 8 to 12 plants, and used in the test when first leaf was fully emerged. Test plants were inoculated by dusting with infected stock plants 24 hr after fungicide treatments. After inoculation the plants were kept in a greenhouse set at 20° C. for disease to develop. Fungicide formulation, application and disease assessment on the sprayed leaves followed the procedures as described in the Example A.

[2] = system: Mycosphaerella graminicola; Anamorph: Septoria tritici; test: Leaf blotch of wheat (SEPTTR) disease control on wheat seedlings; details: Zymoseptoria tritici; for pest or weed control at 121.5 g/ha: low volume application, 121.5 g/H
Outline: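 Wheat seedlings (Yuma, first leaf emerged) sprayed to run-off with compound in acetone/water with 110 ppm Triton X-100, or track-sprayed as EC with 0.1% Trycol 5941. Septoria tritici spores inoculated before or after treatment. Dew chambers, then 20 °C greenhouse. Percent disease control derived from severity (0–100%) relative to untreated plants.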

[3] = system: Erysiphe cichoracearum; test: Powdery mildew of cucumber (ERYSCI) disease control; details: Golovinomyces cichoracearum, 24 h, 1 Day Protectant, high volume, read-out: Disease Control ERYSCI 1 DP
Experimental: Technical grades of materials were dissolved in acetone, which were then mixed with nine volumes of water containing 110 ppm Triton X-100. The fungicide solutions were applied onto wheat seedlings using an automated booth sprayer to run-off. All sprayed plants were allowed to air dry prior to further handling. All fungicides were evaluated using the aforementioned method for their activity vs. all target diseases. Wheat leaf blotch and brown rust activity were also evaluated using track spray applications, in which case the fungicides were formulated as EC formulations, containing 0.1% Trycol 5941 in the spray solutions. Cucumber seedlings (variety Bush Pickle) were grown in soil-less Metro mix, with one plant per pot, and used in the test when 12 to 14 days old. Plants were inoculated with a spore suspension 24 hr following fungicide treatments. After inoculation the plants remained in the greenhouse set at 20° C. until disease was fully expressed. Fungicide formulation, application and disease assessment on the sprayed leaves followed the procedures as described in the Example A.

[4] = system: Alternaria solani; test: Tomato early blight (ALTESO) disease control; details: 24 h, 1 Day Protectant, high volume, read-out: Disease Control ALTESO 1 DP
Experimental: Technical grades of materials were dissolved in acetone, which were then mixed with nine volumes of water containing 110 ppm Triton X-100. The fungicide solutions were applied onto wheat seedlings using an automated booth sprayer to run-off. All sprayed plants were allowed to air dry prior to further handling. All fungicides were evaluated using the aforementioned method for their activity vs. all target diseases. Wheat leaf blotch and brown rust activity were also evaluated using track spray applications, in which case the fungicides were formulated as EC formulations, containing 0.1% Trycol 5941 in the spray solutions. Tomato plants (variety Outdoor girl) were propagated in soil-less Metro mix, with each pot having one plant, and used when 12 to 14 days old. Test plants were inoculated with an aqueous spore suspension of Alternaria solani 24 hr after fungicide treatments. After inoculation the plants were kept in 100% relative humidity (one day in a dark dew chamber followed by two to three days in a lighted dew chamber at 20° C.) to permit spores to germinate and infect the leaf. The plants were then transferred to a growth room at 22° C. for disease to develop. Fungicide formulation, application and disease assessment on the sprayed leaves followed the procedures as described in the Example A.

[5] = 24 h, High volume application, 1 Day Protectant, read-out: SEPTTR 1DP disease control
[6] = 72 h, High volume application, 3 Day Curative, read-out: SEPTTR 3DC disease control

Structure (SMILES)	pest or weed control at 100 ppm [1] [%]	pest or weed control at 100 ppm [2, 5] [%]	pest or weed control at 100 ppm [2, 6] [%]	pest or weed control at 100 ppm [3] [%]	pest or weed control at 100 ppm [4] [%]	pest or weed control at 100 ppm ([2]; 24 h, Wheat Leaf Blotch, 1 Day Protectant, high volume application, read-out: Disease Control SEPTTR 1 DP 100 ppm) [%]	pest or weed control at 121.5 g/ha ([2]; 24 h, Wheat Leaf Blotch, 1 Day Protectant, read-out: Disease Control SEPTTR 1 DP 121.5 g/H) [%]	pest or weed control at 100 ppm ([2]; 72 h, Wheat Leaf Blotch, 3 Day Curative, high volume application, read-out: Disease Control SEPTTR 3 DC 100 ppm) [%]	pest or weed control at 121.5 g/ha ([2]; 72 h, Wheat Leaf Blotch, 3 Day Curative, read-out: Disease Control SEPTTR 3 DC 121.5 g/H) [%]
COc1ccnc(C(=O)N[C@H]2CCC[C@H](OCC(C)C)[C@@H](Oc3ccccc3)[C@H](C)OC2=O)c1OCOC(=O)C(C)C [F34]	0 to 80	80 to 100	80 to 100	0 to 80	0 to 80				
COc1ccnc(C(=O)N[C@H]2CCC[C@H](Oc3ccccc3)[C@@H](Oc3ccccc3)[C@H](C)OC2=O)c1OCOC(=O)C(C)C [F36]	0 to 80	80 to 100	80 to 100	0 to 80	80 to 100				
COc1ccnc(C(=O)N[C@H]2CCC[C@H](Oc3ccccc3)[C@@H](OC(=O)C3CC3)[C@H](C)OC2=O)c1OCOC(=O)C(C)C [F241]	0 to 80			< 0	0 to 80	80 to 100	< 0	80 to 100	< 0
COc1ccnc(C(=O)N[C@H]2CCC[C@H](OCC(C)C)[C@@H](OC3CCCC3)[C@H](C)OC2=O)c1OCOC(=O)C(C)C [F38]	80 to 100	80 to 100	80 to 100	80 to 100	80 to 100				
COCCC(=O)Oc1c(OC)ccnc1C(=O)N[C@H]1CCC[C@H](Oc2ccccc2)[C@@H](OCCCc2ccccc2)[C@H](C)OC1=O [F132]	0 to 80	80 to 100	80 to 100	0 to 80	80 to 100				
COc1ccnc(C(=O)N[C@H]2CCC[C@H](OCCCc3ccccc3)[C@@H](Oc3ccccc3)[C@H](C)OC2=O)c1OC(C)=O [F134]	0 to 80	80 to 100	80 to 100	0 to 80	0 to 80				
CCCO[C@H]1CCC[C@H](NC(=O)c2nccc(OC)c2OCOC(=O)C(C)C)C(=O)O[C@@H](C)[C@@H]1Oc1ccccc1 [F139]	< 0	80 to 100	80 to 100	0 to 80	80 to 100				
CCCCCO[C@H]1[C@H](C)OC(=O)[C@@H](NC(=O)c2nccc(OC)c2OCOC(C)=O)CCC[C@@H]1OC1CCCC1 [F166]	80 to 100	80 to 100	80 to 100	80 to 100	80 to 100				
COc1ccnc(C(=O)N[C@H]2CCC[C@H](OCCCC(F)(F)F)[C@@H](OC3CCCC3)[C@H](C)OC2=O)c1OCOC(C)=O [F172]	0 to 80	80 to 100	80 to 100	80 to 100	80 to 100				
COc1ccnc(C(=O)N[C@H]2CCC[C@H](OCCCC(F)(F)F)[C@@H](OC3CCCC3)[C@H](C)OC2=O)c1OCOC(=O)C(C)C [F171]	0 to 80	80 to 100	80 to 100	80 to 100	80 to 100				
CCCO[C@H]1CCC[C@H](NC(=O)c2nccc(OC)c2OC(=O)CCOC)C(=O)O[C@@H](C)[C@@H]1Oc1ccccc1 [F140]	0 to 80	80 to 100	80 to 100	< 0	80 to 100				
